# From patent US12121524B2, “DNA-PK inhibitors” (VERTEX PHARMACEUTICALS INCORPORATED, priority 2018, dated 2024)
# “And” between values parts separate entries of the source, which are not always exact repeats. Equal entries are not always repeated.
# Key:
# DNA-PK = DNA-PK (Homo sapiens, UniProt P78527); assay: DNA-PK inhibition assay (standard radiometric 33P-ATP kinase assay); type: biochemical; details: 100 μM ATP, approx. 6 nM DNA-PK
# Experimental: Compounds were screened for their ability to inhibit DNA-PK kinase using a standard radiometric assay. Briefly, in this kinase assay the transfer of the terminal ^33P-phosphate in ^33P-ATP to a peptide substrate is interrogated. The assay was carried out in 384-well plates to a final volume of 50 μL per well containing approximately 6 nM DNA-PK, 50 mM HEPES (pH 7.5), 10 mM MgCl2, 25 mM NaCl, 0.01% BSA, 1 mM DTT, 10 μg/mL sheared double-stranded DNA (obtained from Sigma), 0.8 mg/mL DNA-PK peptide (Glu-Pro-Pro-Leu-Ser-Gln-Glu-Ala-Phe-Ala-Asp-Leu-Trp-Lys-Lys-Lys, obtained from American Peptide), and 100 μM ATP.
# Accordingly, compounds of the invention were dissolved in DMSO to make 10 mM initial stock solutions. Serial dilutions in DMSO were then made to obtain the final solutions for the assay. A 0.75 μL aliquot of DMSO or inhibitor in DMSO was added to each well, followed by the addition of ATP substrate solution containing ^33P-ATP (obtained from Perkin Elmer). The reaction was started by the addition of DNA-PK, peptide and ds-DNA. After 45 min, the reaction was quenched with 25 μL of 5% phosphoric acid. The reaction mixture was transferred to MultiScreen HTS 384-well PH plates (obtained from Millipore), allowed to bind for one hour, and washed three times with 1% phosphoric acid. Following the addition of 50 μL of Ultima Gold™ high efficiency scintillant (obtained from Perkin Elmer), the samples were counted in a Packard TopCount NXT Microplate Scintillation and Luminescence Counter (Packard BioScience). The Ki values were calculated using Microsoft Excel Solver macros to fit the data to the kinetic model for competitive tight-binding inhibition.
# CD34+ cells = assay: HDR gene editing rates in CD34+ cells, spCAS9 mRNA, AAVS1 (Example 20); type: cell-based, human; details: AAVS1 sgRNA, AAVS1 Non-PAM ssODN, 72 hs, FIGS. 8-10
# Experimental: To investigate the effect of DNA-PK inhibitors on HDR gene editing rates, CD34^+ cells were electroporated with spCAS9 mRNA, AAVS1 sgRNA and AAVS1 Non-PAM ssODN and then incubated with different concentrations of Compounds 666, 661, 663 or left untreated (Control). Gene editing rates were determined by using TIDE assay 72 hs after electroporation. Gene editing rates were expressed in percentages and classified as HDR and NHEJ. Cell survival rates are shown in percentages where control cells were set as 100%.
# mPB CD34+ cells [1] = assay: Gene editing rates in CD34+ cells, Example 19 (lower sgRNA and ssODN); type: cell-based, human; details: for % HDR: NAV1.7, 48 h
# Experimental: Primary human mobilized peripheral blood (mPB) CD34^+ hematopoietic stem and progenitor cells (HSPCs) were purchased from Hemacare or AllCells. Cells were thawed, washed and resuspended in complete medium comprised of serum free medium CellGro SCGM (CellGenix) and supplemented with cytokine mix (300 ng/mL SCF, 300 ng/mL Flt3 L, 100 ng/mL TPO, 60 ng/ml IL-3) at a density of 1-3×10^5 cells per mL and incubated at 37° C./5% CO2 incubator for 48 hours prior to electroporation.
# (§1) CD34^+ cells were electroporated two days post thaw. The following conditions were used for electroporation: 2.0×E6 cells, 15 μg Cas9 protein (Feldan), 15 μg sgRNA, 1 μM of ssODN in 100 μl of P3 electroporation buffer using program CA-137. Electroporated cells were transferred by equally dividing them into eight wells of a 24-well plate, each well containing various concentrations of DNA-PK inhibitors. Cells were incubated at 37° C. in a 5% CO2 incubator for two days and evaluated for cell viability and gene editing.
# Genomic DNA was isolated by incubating cells with 50 ul DNA Quickextract solution (Epicentre) per well of 96 well plate for 30 min at 37° C. Cellular extract was mixed and transferred into a PCR plate and then incubated for 6 min at 65° C. and 2 min at 98° C. PCR reactions were carried out with 1 ul of Genomic DNA containing solution by using AccuPrime™ Pfx DNA Polymerase (Thermofisher, 12344024). PCR conditions were 4 min at 94° C. (1×), followed by 15 s at 94° C., 15 s at 60° C. and 1 min at […]. The PCR products were purified and then Sanger sequenced by GENEWIZ. The following primer pairs spanning the target site were used for PCR (FW, forward; RV, reverse). Primers used by Sanger Sequencing are indicated by an asterisk (*): […]
# Each sequence chromatogram was analyzed using TIDE (Tracking of Indels by Decomposition) software (http://tide.nki.nl) (See also Brinkman et al., Nucleic Acids Research, Volume 42, Issue 22, 16 Dec. 2014, Pages e168). Mock-electroporated samples were used as the reference sequence, and parameters were set to an indel size of 30 nt, and the decomposition window was set to cover the largest possible window with high-quality traces. Total indel (insertion and deletions) rates were obtained directly from TIDE plots. HDR rates were the percentage of events with an insertion of 10 Nucleotides. NHEJ Rates were calculated as Total Indel rate−HDR rate. GraphPad Prism 7 software was used to make Graphs and to calculate the all Statistical information.
# (§2) mPB CD34^+ cells were electroporated with RNP (spCAS9 protein+NAV1.7 sgRNA) and NAV1.7 Non-PAM ssODN. Cells were then incubated with various concentrations of Compounds 661, 663 and 666. Experiments were done as described in the methods above, except lower concentrations of sgRNA (5 μg) and ssODN (0.2 μM) were used. Gene editing rates were determined by using TIDE assay 48 h after electroporation. Gene editing rates were expressed in percentages and classified as HDR and NHEJ.
# mPB CD34+ cells [2] = assay: CD34+ cell viability (Cell Titer Glo), Example 19; type: cell-based, human; details: untreated control = 100
# Experimental: as §1
# CD34^+ HSPCs cell survival was measured using Cell Titer Glo (CTG) reagent (Promega). 100 μl of cell suspension was mixed with 100 μl complete CTG reagent. The chemiluminescent signal was measure using a luminometer and % of viable cells was calculated as compared to control cells (cells not treated with the DNA-PK inhibitors).
# as §2
Ki (DNA-PK),SMILES,HDR rates (CD34+ cells),"% NHEJ (mPB CD34+ cells [1]; Donor A, 0.37 μM)","% HDR (mPB CD34+ cells [1]; Donor A, 0.37 μM)","% Indels (mPB CD34+ cells [1]; Donor A, 1.11 μM)","% NHEJ (mPB CD34+ cells [1]; Donor A, 1.11 μM)","% WT (mPB CD34+ cells [1]; Donor A, 1.11 μM)","% HDR (mPB CD34+ cells [1]; Donor A, 1.11 μM)","% Indels (mPB CD34+ cells [1]; Donor A, 3.33 μM)","% WT (mPB CD34+ cells [1]; Donor A, 3.33 μM)","% HDR (mPB CD34+ cells [1]; Donor A, 3.33 μM)","% NHEJ (mPB CD34+ cells [1]; Donor A, 10 μM)","% Indels (mPB CD34+ cells [1]; Donor A, 10.00 μM)","% WT (mPB CD34+ cells [1]; Donor A, 10.00 μM)","% HDR (mPB CD34+ cells [1]; Donor A, 10 μM)","% NHEJ (mPB CD34+ cells [1]; Donor D, 0.37 μM)","% HDR (mPB CD34+ cells [1]; Donor D, 0.37 μM)","% Indels (mPB CD34+ cells [1]; Donor D, 1.11 μM)","% NHEJ (mPB CD34+ cells [1]; Donor D, 1.11 μM)","% WT (mPB CD34+ cells [1]; Donor D, 1.11 μM)",other results
1 nM,CNC(=O)c1ccnc(N[C@H]2CC[C@@H](Oc3cc(N4CCOCC4)cc4nccnc34)CC2)n1 [Compound 661],improve HDR rates,66.2%,21.8%,59.4%,59.4%,4.2%,31.7%,57.8%,5.1%,32.2%,47%,47%,18.9%,28%,78.1%,6.9%,77.5%,77.5%,6%,"% HDR (mPB CD34+ cells [1]; Donor D, 1.11 μM): 10.8%; % Indels (mPB CD34+ cells [1]; Donor D, 3.33 μM): 76.7%; % WT (mPB CD34+ cells [1]; Donor D, 3.33 μM): 6.4%; % HDR (mPB CD34+ cells [1]; Donor D, 3.33 μM): 11.5%; % NHEJ (mPB CD34+ cells [1]; Donor D, 10 μM): 64.2%; % Indels (mPB CD34+ cells [1]; Donor D, 10.00 μM): 64.2%; % WT (mPB CD34+ cells [1]; Donor D, 10.00 μM): 11.1%; % HDR (mPB CD34+ cells [1]; Donor D, 10 μM): 13.4%; Viability (mPB CD34+ cells [2]; Donor A, 1.11 μM): 60; Viability (mPB CD34+ cells [2]; Donor A, 3.33 μM): 47; Viability (mPB CD34+ cells [2]; Donor A, 10.00 μM): 6; Viability (mPB CD34+ cells [2]; Donor D, 1.11 μM): 62; Viability (mPB CD34+ cells [2]; Donor D, 3.33 μM): 75; Viability (mPB CD34+ cells [2]; Donor D, 10.00 μM): 11"
1 nM and < 100 nM,"CNC(=O)c1ccnc(N[C@H]2CC[C@@H](Oc3cc(N4CCOCC4)cc4nonc34)CC2)n1 [Compound 666, N-methyl-2-((4-((6-morpholinobenzo[c][1,2,5]oxadiazol-4-yl)oxy)cyclohexyl)amino)pyrimidine-4-carboxamide]",improve HDR rates,67.3%,23.2%,58.8%,58.8%,3.5%,31.5%,56.5%,5.8%,32.4%,52%,52%,9.7%,33.6%,79.2%,5.5%,77.5%,77.5%,6.2%,"% HDR (mPB CD34+ cells [1]; Donor D, 1.11 μM): 11%; % Indels (mPB CD34+ cells [1]; Donor D, 3.33 μM): 73.8%; % WT (mPB CD34+ cells [1]; Donor D, 3.33 μM): 5.3%; % HDR (mPB CD34+ cells [1]; Donor D, 3.33 μM): 14.3%; % NHEJ (mPB CD34+ cells [1]; Donor D, 10 μM): 69%; % Indels (mPB CD34+ cells [1]; Donor D, 10.00 μM): 69%; % WT (mPB CD34+ cells [1]; Donor D, 10.00 μM): 11.8%; % HDR (mPB CD34+ cells [1]; Donor D, 10 μM): 13.7%; Viability (mPB CD34+ cells [2]; Donor A, 1.11 μM): 65; Viability (mPB CD34+ cells [2]; Donor A, 3.33 μM): 42; Viability (mPB CD34+ cells [2]; Donor A, 10.00 μM): 36; Viability (mPB CD34+ cells [2]; Donor D, 1.11 μM): 76; Viability (mPB CD34+ cells [2]; Donor D, 3.33 μM): 69; Viability (mPB CD34+ cells [2]; Donor D, 10.00 μM): 34"
